From patent US9169241B2, “Quinolinyloxyphenylsulfonamides” (Max-Planck-Gesellschaft Zur Forderung der Wissenschaften …, priority 2009, dated 2015)

Experiments:
[1] = tested on: Hs578T; assay: Matrigel outgrowth assay/branching assay; assay type: cell-based; conditions: Homo sapiens, Hs-578T; HS578T cell line; Table Ib; read-out: Total branching inhibition in Matrigel HS578T
Summary of the method: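 Invasive outgrowth into a 3 mg/ml Matrigel gel is judged from images taken after 48, 72 and 96 h of exposure to 3.125, 1.56 or 0.78 μM compound, with DMSO as control. Positive means total inhibition of branching.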

[2] = tested on: Hs578T; assay: Cell vitality assay (ATP assay, CellTiter-Glo); assay type: cell-based; conditions: Homo sapiens, Hs-578T; HS578T cell line, 72 h; Table Ib; read-out: IC50 ATP-Assay HS578T after 72 h
Summary of the method: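 Luminescent ATP read-out of viable cells; IC50 = concentration at which ATP falls to 50% of DMSO control. Cells seeded at 1000/well, treated 72 h with seven concentrations from 0.195 to 12.5 μM.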

[3] = molecular target: T1, wild type AXL (wtAXL) receptor tyrosine kinase (Homo sapiens, UniProt P30530); assay: NIH-3T3-AXL cellular kinase assay (pY-AXL-ELISA); assay type: cell-based; conditions: NIH-3T3-AXL (clone 22) cells, serum depleted, compounds 1 h; Table Ia
T1 construct: WtAXL cDNA was cloned into vector pLXSN(ESK) and transfected into Phoenix E packaging cells; expressed in transfected cells; host or cells: NIH3T3 N7 (mouse fibroblasts), retrovirally infected, clone 22
T1 sequence (P30530 26-894): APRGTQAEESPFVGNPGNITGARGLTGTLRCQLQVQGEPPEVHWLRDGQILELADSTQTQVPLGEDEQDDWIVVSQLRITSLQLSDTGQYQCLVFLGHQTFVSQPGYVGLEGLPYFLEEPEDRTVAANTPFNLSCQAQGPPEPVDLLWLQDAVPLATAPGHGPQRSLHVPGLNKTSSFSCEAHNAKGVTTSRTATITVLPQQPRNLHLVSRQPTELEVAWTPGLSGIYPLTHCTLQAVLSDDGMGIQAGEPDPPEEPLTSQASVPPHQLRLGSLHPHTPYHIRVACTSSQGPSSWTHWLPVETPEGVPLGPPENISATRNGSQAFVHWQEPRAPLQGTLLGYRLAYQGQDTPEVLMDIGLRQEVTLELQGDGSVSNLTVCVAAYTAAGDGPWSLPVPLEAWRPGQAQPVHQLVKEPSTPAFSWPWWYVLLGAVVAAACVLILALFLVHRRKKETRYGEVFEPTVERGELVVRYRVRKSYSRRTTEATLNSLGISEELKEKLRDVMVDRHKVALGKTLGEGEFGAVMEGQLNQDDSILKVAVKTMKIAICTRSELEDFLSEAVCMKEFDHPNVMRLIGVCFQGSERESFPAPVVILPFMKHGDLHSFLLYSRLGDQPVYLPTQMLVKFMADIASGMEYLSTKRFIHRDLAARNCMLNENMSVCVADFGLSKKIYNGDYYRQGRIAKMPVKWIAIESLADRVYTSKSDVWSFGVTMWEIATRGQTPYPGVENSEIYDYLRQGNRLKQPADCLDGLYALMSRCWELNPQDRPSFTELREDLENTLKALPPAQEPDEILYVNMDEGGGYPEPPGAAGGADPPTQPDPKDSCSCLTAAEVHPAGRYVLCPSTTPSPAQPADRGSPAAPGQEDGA
Procedure: WtAXL cDNA was cloned into vector pLXSN(ESK) and transfected into Phoenix E packaging cells. The viral supernatant was collected and used to infect target cells NIH3T3 N7. Monoclonal NIH3T3-AXL cell lines stably expressing wtAXL were generated by selecting retrovirally infected cells in medium containing puromycin (2 μg/ml) and subsequent clonal separation.
Serial dilutions of compounds were added, and the cells were further incubated for 1 h. Cells were washed with PBS and lysed on ice in 500 μl lysis buffer (50 mM HEPES (pH 7.5), 150 mM NaCl, 1 mM EGTA, 10% Glycerol, 1% Triton X-100, 100 mM NaF, 10 mM Na4P2O7.10H2O, 1 mM Na3VO4, 1 mM phenylmethylsulfonyl fluoride, and […]) for 15 min. The cell lysate were used for phosphotyrosine AXL enzyme-linked immunosorbant assay (pY-AXL-ELISA). […] Subsequently 96-well plates were blocked with PBS-0.05% Tween®20+10% FBS for 4 h at 37° C. Plates were washed 5 times with PBS-0.05% Tween®20 and 95 μl of lysate was transferred per well for incubation overnight at 4° C. Plates were washed 5 times with PBS-0.05% Tween®20 (Sigma, Steinheim, Germany). For detection of phosphorylated tyrosine we used homemade biotynilated 4G10-antibody (0.5 μg/ml) in PBS-0.05% Tween®20+10% FBS (100 μl/well) and incubated the 96-well plate for 2 h at room temperature. The anti-phosphotyrosine mouse monoclonal antibody 4G10 was biotynilated with Sulfo-NHS®-Biotin according to the suppliers protocol (Pierce, Rockford, Ill., USA) and purified by Mirco Bio-Spin 6 Chromatograpy Columns (BIO RAD Laboratories, Inc., Hercules, Calif., USA) using PBS as diluent. Plates were washed 5 times with PBS-0.05% Tween®20. For biding to biotin Alkaline Phosphatase Conjugated Strepavidin SA110 (Millipore, Billerica, Mass., USA) (1:4000) was used in PBS-0.05% Tween20+10% FBS (100 μl/well) and incubated for 30 min at room temperature. Plates were washed 5 times with PBS-0.05% Tween20. For fluorimetric detection of alkaline phosphatase AttoPhos Substrate Set (Roche diagnostics GmbH, Mannheim, Germany) was used (100 μl/well). The fluorimetric signal was quantified after 90 min at 430/560 nm wavelength using a TECAN Ultra Evolution plate reader (Tecan Deutschland GmbH, Crailsheim, Germany).

[4] = tested on: Hs578T; assay: Wound healing migration assay; assay type: cell-based; conditions: Homo sapiens, Hs-578T; HS578T cell line; Table Ib
Summary of the method: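 Compound exposure at 12.5, 6.25 and 3.125 μM, with DMSO control, on scratch-wounded monolayers (150000 cells/24 well, overnight). Wound closure imaged by microscopy, fixed with crystal violet after 48 h or 72 h depending on cell line; IC50 is the concentration giving 50% wound size between t0 and t48/t72.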

| SMILES | IC50 [1] | IC50 [2] | melting point | IC50 [3] | IC50 [4] |
| --- | --- | --- | --- | --- | --- |
| COc1cc2c(Oc3ccc(NS(=O)(=O)c4cccc(C(F)(F)F)c4)cc3F)ccnc2cc1OCCCN1CCCCC1 [Example 5, N-{3-Fluoro-4-[6-methoxy-7-(3-piperidin-1-yl-propoxy)-quinolin-4-yloxy]-phenyl}-3-trifluoromethyl-benzenesulfonamide] | 10 to 25 µM | ≤ 12.5 µM | 123 to 126 °C | < 0.5 µM | 12.5 to 50 µM |
| COc1cc2c(Oc3ccc(NS(=O)(=O)c4cccc(OC(F)F)c4)cc3F)ccnc2cc1OCCCN1CCCCC1 [Example 9, 3-Difluoromethoxy-N-{3-fluoro-4-[6-methoxy-7-(3-piperidin-1-yl-propoxy)-quinolin-4-yloxy]-phenyl}-benzenesulfonamide] | 10 to 25 µM | ≤ 12.5 µM | 105 to 106 °C | < 0.5 µM | 12.5 to 50 µM |
| COc1cc2c(Oc3ccc(NS(=O)(=O)c4ccccc4)cc3F)ccnc2cc1OCCCN1CCCC(C)C1 (centres unmarked) [Example 36, N-(3-Fluoro-4-{6-methoxy-7-[3-(3-methyl-piperidin-1-yl)-propoxy]-quinolin-4-yloxy}-phenyl)-benzenesulfonamide] | 10 to 25 µM | ≤ 12.5 µM | 160 to 161 °C | < 0.5 µM | 12.5 to 50 µM |
| COc1cc2c(Oc3ccc(NS(=O)(=O)c4cccc(F)c4)cc3F)ccnc2cc1OCCCN1CCCC(C)C1 (centres unmarked) [Example 37, 3-Fluoro-N-(3-fluoro-4-{6-methoxy-7-[3-(3-methyl-piperidin-1-yl)-propoxy]-quinolin-4-yloxy}-phenyl)-benzenesulfonamide] | 10 to 25 µM | ≤ 12.5 µM | 113 to 115 °C | < 0.5 µM | 12.5 to 50 µM |
| COc1cc2c(Oc3ccc(NS(=O)(=O)c4cccc(OC(F)F)c4)cc3F)ccnc2cc1OCCCN1CCCC(C)C1 (centres unmarked) [Example 43, 3-Difluoromethoxy-N-(3-fluoro-4-{6-methoxy-7-[3-(3-methyl-piperidin-1-yl)-propoxy]-quinolin-4-yloxy}-phenyl)-benzenesulfonamide] | ≤ 10 µM | ≤ 12.5 µM | 99 to 100 °C | < 0.5 µM | ≤ 12.5 µM |
| COc1cc2c(Oc3ccc(NS(=O)(=O)c4ccccc4C)cc3F)ccnc2cc1OCCCN1CCCC(C)C1 (centres unmarked) [Example 44, N-(3-Fluoro-4-{6-methoxy-7-[3-(3-methyl-piperidin-1-yl)-propoxy]-quinolin-4-yloxy}-phenyl)-2-methyl-benzenesulfonamide] | ≤ 10 µM | ≤ 12.5 µM | 99 to 100 °C | < 0.5 µM | ≤ 12.5 µM |
| COc1cc2c(Oc3ccc(NS(=O)(=O)c4cccc(OC(F)(F)F)c4)cc3F)ccnc2cc1OCCCN1CCCC(C)C1 (centres unmarked) [Example 46, N-(3-Fluoro-4-{6-methoxy-7-[3-(3-methyl-piperidin-1-yl)-propoxy]-quinolin-4-yloxy}-phenyl)-3-trifluoromethoxy-benzenesulfonamide] | ≤ 10 µM | ≤ 12.5 µM | 102 to 104 °C | < 0.5 µM | ≤ 12.5 µM |
| COc1cc2c(Oc3ccc(NS(=O)(=O)c4c(F)cccc4F)cc3Cl)ccnc2cc1OCCCN1CCN(C)CC1 [Example 118, N-(3-Chloro-4-{6-methoxy-7-[3-(4-methyl-piperazin-1-yl)-propoxy]-quinolin-4-yloxy}-phenyl)-2,6-difluoro-benzenesulfonamide] | – | – | 122 to 124 °C | < 0.5 µM | – |
| COc1ccc2nccc(Oc3ccc(NS(=O)(=O)c4c(F)cccc4F)cc3F)c2c1 [Example 200, 2,6-Difluoro-N-[3-fluoro-4-(6-methoxy-quinolin-4-yloxy)-phenyl]-benzenesulfonamide] | 10 to 25 µM | 12.5 to 50 µM | 227 to 228 °C | – | 12.5 to 50 µM |
| COc1ccc2nccc(Oc3ccc(NS(=O)(=O)c4cc(Cl)ccc4Cl)cc3F)c2c1 [Example 203, 2,5-Dichloro-N-[3-fluoro-4-(6-methoxy-quinolin-4-yloxy)-phenyl]-benzenesulfonamide] | 10 to 25 µM | ≤ 12.5 µM | 253 to 255 °C | – | ≤ 12.5 µM |
| COc1ccc2nccc(Oc3ccc(NS(=O)(=O)c4c(Cl)cccc4Cl)cc3F)c2c1 [Example 204, 2,6-Dichloro-N-[3-fluoro-4-(6-methoxy-quinolin-4-yloxy)-phenyl]-benzenesulfonamide] | 10 to 25 µM | 12.5 to 50 µM | 219 to 221 °C | – | 12.5 to 50 µM |
| COc1ccc2nccc(Oc3ccc(NS(=O)(=O)c4ccc5ccccc5c4)cc3F)c2c1 [Example 205, Naphthalene-2-sulfonic acid [3-fluoro-4-(6-methoxy-quinolin-4-yloxy)-phenyl]-amide] | 10 to 25 µM | 12.5 to 50 µM | 220 to 222 °C | – | 12.5 to 50 µM |
| COc1ccc2nccc(Oc3ccc(NS(=O)(=O)C4CC4)cc3F)c2c1 [Example 206, Cyclopropanesulfonic acid [3-fluoro-4-(6-methoxy-quinolin-4-yloxy)-phenyl]-amide] | 10 to 25 µM | 12.5 to 50 µM | 194 to 196 °C | – | 12.5 to 50 µM |
| COc1cc2c(Oc3ccc(NS(=O)(=O)c4cc(F)ccc4F)cc3F)ccnc2cc1OCCCCOC(C)=O [Example 211, Acetic acid 4-{4-[4-(2,5-difluoro-benzenesulfonylamino)-2-fluoro-phenoxy]-6-methoxy-quinolin-7-yloxy}-butyl ester] | 10 to 25 µM | ≤ 12.5 µM | 165 to 167 °C | – | ≤ 12.5 µM |
| COc1cc2c(Oc3ccc(NS(=O)(=O)c4ccccc4C(F)(F)F)cc3F)ccnc2cc1OCCCCOC(C)=O [Example 212, Acetic acid 4-{4-[2-fluoro-4-(2-trifluoromethyl-benzenesulfonylamino)-phenoxy]-6-methoxy-quinolin-7-yloxy}-butyl ester] | 10 to 25 µM | 12.5 to 50 µM | 143 to 145 °C | – | 12.5 to 50 µM |
